# “Also recorded” adds a separate entry of the source.
# Key:
# [1] = tested on: primary hyaloid vessels in zebrafish; assay: Quantification of primary hyaloid vasculature branch number in Tg(fli1:EGFP) zebrafish; type: in vivo
# Procedure: All experiments were carried out under ethical approval granted by the UCD animal research ethics committee. Tg(fli1:EGFP) zebrafish were maintained according to standard procedures on a 14 hr light/10 hr dark cycle at 28° C. Embryos were obtained by natural spawning and developmental stages established by time and morphological criteria. At 48 hours post fertilisation (hpf), 5 embryos per well were placed in 400 μl of Embryo Medium/0.1% DMSO and incubated with compound (typically, 10 μM) at 28° C. on a 14 h light/10 h dark cycle. At 5 days post fertilisation (dpf), larvae were euthanised, and fixed in 4% PFA at 4° C. overnight before analysis.
# Prior to analysis of the intraocular vasculature, the control and treated larvae were observed under an Olympus SZX16 stereo zoom microscope and screened for general malformations. Overall patterning of the vasculature (fin, gut and intersegmental vessels) was examined for abnormalities. Right lenses were dissected from the larvae and transferred to depression slides for observation under epi-fluorescence in the Olympus SZX16. Patterning of the hyaloid vessels on the treated larval lenses was compared to 0.1% DMSO controls and the archetypal pattern previously described (Alvarez et al., 2007; Alvarez et al., 2009). The number of primary vessels radiating from the back of the lens (3-4 main branches at 5 dpf in controls and previously described), was counted and the average number was graphed for each drug.
# (§1) All experimental protocols were carried out as per example 1 and 2. Briefly, zebrafish larvae were treated with 10 μM of AT-051/41206012 (chemical name 2-[2-(2-methoxyphenyl)ethenyl]pyrazine) purchased from Specs (The Netherlands). At 6 or 48 hours post fertilisation (hpf), 5 embryos per well were placed in 400 μl of Embryo Medium/0.1% DMSO and incubated with 10 μM AT-051/41206012 at 28° C. on a 14 h light/10 h dark cycle. Larvae were treated from 6-48 hpf (intersegmental vessel study) or from 48 to 120 hpf (primary hyaloid vessel study). At the end of the study, larvae were euthanized and fixed in 4% PFA at 4° C. overnight before analysis.
# (§2) The number of intersegmental vessels was counted and the average number was graphed for each drug. Right lenses were dissected from the larvae and transferred to depression slides for observation and the number of primary hyaloid vessels radiating from the back of the lens (3-4 main branches at 5 dpf in controls and previously described), was counted and the average number was graphed for each drug.
# [2] = tested on: intersegmental vasculature in zebrafish; assay: Quantification of intersegmental vessel number in zebrafish; type: in vivo; settings: 10 μM; zebrafish embryos treated 6 hpf to 48 hpf
# Procedure: At 6 hours post fertilisation, 5 embryos per well were placed in 400 μL of embryo medium/0.1% DMSO and incubated with 10 μM compound at 28° C. on a 14 h light/10 h dark cycle. At 48 hpf larvae were manually dechorionated, euthanised, and fixed in 4% PFA at 4° C. overnight before analysis. The larvae were then washed with PBS and transferred to depression slides for observation under epi-fluorescence in an Olympus SZX16 fluorescent microscope. The number of intersegmental vessels was counted and the average number was graphed for each drug.
# as §1, §2
# [3] = tested on: oxygen induced mouse model of retinopathy; assay: Mouse oxygen-induced retinopathy model of neovascularisation; type: in vivo; settings: 5 and 20 μM; intravitreal injection on P12, retinas analysed P17; mouse OIR; hydrochloride
# Text: The mouse oxygen-induced retinopathy model was used to test the anti-angiogenic activity of compounds 4, 12 and 18. Mouse pups (together with their dams) were placed in 75% oxygen from postnatal day (P) 7 to P12, causing a regression of their retinal blood vessels. On P12, pups were placed back in normoxia (21%) causing a regrowth of retinal blood vessels. Pups received an intravitreal injection on P12, of compound 4, 12, 18 or vehicle control—Hank's Balanced Salt Solution, coinciding with their return to normoxia. Pups were culled on P17 and enucleated. Eyes were fixed in 4% paraformaldehyde, washed and dissected to form retinal flatmounts. Flatmounts were stained with isolectin to visualise blood vessels and imaged. The central avascular area (lacking a network of blood vessels) was quantified using FIJI image analysis software.
# mouse aortic ring = assay: Ex vivo mouse aortic ring assay (sprout formation); settings: 10 μM; C57/BL6 mouse aortic rings in matrigel; vs 0.1% DMSO; hydrochloride
# Procedure: Aortae from sex matched C57/BL6 littermates were cleansed of adipose tissue, cut into 2 mm rings and immersed in matrigel. Aortic rings (6 per experiment) were treated with 0.1% DMSO (vehicle control/VC) or with 10 μM of Compound 4, Compound 12, Compound 15 or Compound 20. Sprouts from the perimeter of the aortic ring were counted and quantified as percentage of vehicle control (VC).
smiles,measurement,setting,value
"C/C(=C\c1ccccc1O)c1cnccn1.Cl [Compound 12, (E)-2-[2-(Pyrazin-2-yl)prop-1-enyl]phenol hydrochloride]",inhibition of developmental angiogenesis of the hyaloid vasculature (number of primary hyaloid vessels),"[1]; 10 μM, zebrafish larvae treated 48 hpf to 5 dpf, vs 0.1% DMSO control",inhibit developmental angiogenesis of the zebrafish hyaloid vasculature in a statistically significant manner
same,inhibition of developmental angiogenesis of the hyaloid vasculature (number of primary hyaloid vessels),"[1]; concentrations below 10 μM (range 1, 2.5, 5, 7.5 and 10 μM tested), zebrafish larvae 48 hpf to 5 dpf",inhibit developmental angiogenesis of the zebrafish hyaloid vasculature in a statistically significant manner
same,inhibition of developmental angiogenesis of intersegmental vessels (number of intersegmental vessels),[2],inhibit developmental angiogenesis of zebrafish intersegmental vessels in a statistically significant manner
same,retinal neovascularisation / revascularisation (central avascular area),[3],significantly reduces retinal neovascularisation; also recorded: inhibits retinal revascularisation in a statistically significant manner
same,angiogenesis (sprout formation) in aortic rings,mouse aortic ring,block angiogenesis (sprout formation); also recorded: inhibit the formation of sprouts in a statistically significant manner
